From the NIST ThermoML archive (doi:10.1021/acs.jced.8b01120)
Several values for one entry are separate records, joined by “and”; a condition that tells them apart may be missing. Equal entries are not always repeated.

How the values were obtained:
[1] = xn = mol fraction of the nth substance listed; conditions: 100 kPa, Liquid; for speed of sound: Single path-length method; for mass density: Vibrating tube method
[2] = 100 kPa, Liquid; for speed of sound: Single path-length method; for mass density: Vibrating tube method

CCOC(C)=O [ethyl acetate] + CCCCN(CCCC)CCCC
[1], x2 = 0
Conditions | mass density [kg/m3] | speed of sound [m/s]
293.15 K | 900.882 | 1164.3
298.15 K | 894.79 | 1142.9
303.15 K | 888.656 | 1119.4
308.15 K | 882.475 | 1097.2
313.15 K | 876.247 | 1075

CCCCN(CCCC)CCCC [tributylamine] + CCCCCOC(C)=O
[1], x1 = 1
Conditions | mass density [kg/m3] | speed of sound [m/s]
293.15 K | 777.006 | 1264.2
298.15 K | 773.283 | 1245.2
303.15 K | 769.552 | 1226.2
308.15 K | 765.811 | 1207.4
313.15 K | 762.061 | 1188.8

CCCCN(CCCC)CCCC [tributylamine]
[2]
Conditions | mass density | speed of sound [m/s]
293.15 K | 777.01 kg/m3 and 777.006 kg/m3 | 1264.2
298.15 K | 773.283 kg/m3 and 773.28 kg/m3 | 1245.2
303.15 K | 769.55 kg/m3 and 769.552 kg/m3 | 1226.2
308.15 K | 765.81 kg/m3 and 765.811 kg/m3 | 1207.4
313.15 K | 762.06 kg/m3 and 762.061 kg/m3 | 1188.8

COC(C)=O [methyl ethanoate]
[2]
Conditions | mass density [kg/m3] | speed of sound [m/s]
293.15 K | 935.01 | 1180.4
298.15 K | 928.458 | 1157.5
303.15 K | 921.85 | 1134.9
308.15 K | 915.16 | 1109.2
313.15 K | 908.49 | 1089.6

CCCCOC(C)=O [butyl ethanoate]
[2]
Conditions | mass density [kg/m3] | speed of sound [m/s]
293.15 K | 881.54 | 1211.6
298.15 K | 876.399 | 1191.5
303.15 K | 871.235 | 1172.4
308.15 K | 866.05 | 1153.9
313.15 K | 860.84 | 1131.5

CCOC(C)=O [ethyl acetate]
[2]
Conditions | mass density [kg/m3] | speed of sound [m/s]
293.15 K | 900.882 | 1164.3
298.15 K | 894.79 | 1142.9
303.15 K | 888.656 | 1119.4
308.15 K | 882.475 | 1097.2
313.15 K | 876.247 | 1075

CCCOC(C)=O [propyl ethanoate] + CCCCN(CCCC)CCCC
[1], x2 = 0
Conditions | mass density [kg/m3] | speed of sound [m/s]
293.15 K | 888.964 | 1190.3
298.15 K | 883.369 | 1164.2
303.15 K | 877.422 | 1145
308.15 K | 871.784 | 1123.7
313.15 K | 866.115 | 1102.3

COC(C)=O [methyl ethanoate] + CCCCN(CCCC)CCCC
[1], x2 = 0
Conditions | mass density [kg/m3] | speed of sound [m/s]
293.15 K | 935.01 | 1180.4
298.15 K | 928.458 | 1157.5
303.15 K | 921.85 | 1134.9
308.15 K | 915.16 | 1109.2
313.15 K | 908.49 | 1089.6

CCCCOC(C)=O [butyl ethanoate] + CCCCN(CCCC)CCCC
[1], x2 = 0
Conditions | mass density [kg/m3] | speed of sound [m/s]
293.15 K | 881.54 | 1211.6
298.15 K | 876.399 | 1191.5
303.15 K | 871.235 | 1172.4
308.15 K | 866.05 | 1153.9
313.15 K | 860.84 | 1131.5

CCCOC(C)=O [propyl ethanoate]
[2]
Conditions | mass density [kg/m3] | speed of sound [m/s]
293.15 K | 888.964 | 1190.3
298.15 K | 883.369 | 1164.2
303.15 K | 877.422 | 1145
308.15 K | 871.784 | 1123.7
313.15 K | 866.115 | 1102.3

CCCCCOC(C)=O [pentyl ethanoate]
[2]
Conditions | mass density [kg/m3] | speed of sound [m/s]
293.15 K | 876.248 | 1243
298.15 K | 871.32 | 1220.7
303.15 K | 865.782 | 1196.8
308.15 K | 860.581 | 1174.2
313.15 K | 855.357 | 1152.3
